Reference: US20240252488A1 (KOREA RESEARCH INSTITUTE OF CHEMICAL TECHNOLOGY, priority 2020, published 2024)

What was measured:
FADD−/− Jurkat cells = assay: Necroptosis inhibition assay, TNF-α-induced necroptosis (CellTiter-Glo 2.0); type: cell-based, human; conditions: TNF-α 15 ng/mL, FADD−/− Jurkat cells; for Necroptosis inhibition assay (Rescue %) 1 μM: compound 1 μM; for Necroptosis inhibition assay (Rescue %) 10 μM: compound 10 μM
Outline: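 Cmpd 0.1/1/10 μM final, 30 min RT preincubation; TNF-α 15 ng/mL final; 20–24 h, 37° C, 5% CO2. Readout: ATP luminescence (reagent 1:3 in PBS), 0.5 s/well. Cytotoxicity and % necroptosis inhibition calculated from signal.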

MLKL [1] = target: T1, MLKL (Homo sapiens, UniProt Q8NB16); assay: MLKL degradation assay in HepG2 cell line (western blot); type: cell-based; set-up: endogenous in cells; host or cells: HepG2 or HaCaT; conditions: cell line not given; for Degradation assay (Degradation %) 1 μM: compound 1 μM; for Degradation assay (Degradation %) 10 μM: compound 10 μM
T1 sequence (Q8NB16 1-471): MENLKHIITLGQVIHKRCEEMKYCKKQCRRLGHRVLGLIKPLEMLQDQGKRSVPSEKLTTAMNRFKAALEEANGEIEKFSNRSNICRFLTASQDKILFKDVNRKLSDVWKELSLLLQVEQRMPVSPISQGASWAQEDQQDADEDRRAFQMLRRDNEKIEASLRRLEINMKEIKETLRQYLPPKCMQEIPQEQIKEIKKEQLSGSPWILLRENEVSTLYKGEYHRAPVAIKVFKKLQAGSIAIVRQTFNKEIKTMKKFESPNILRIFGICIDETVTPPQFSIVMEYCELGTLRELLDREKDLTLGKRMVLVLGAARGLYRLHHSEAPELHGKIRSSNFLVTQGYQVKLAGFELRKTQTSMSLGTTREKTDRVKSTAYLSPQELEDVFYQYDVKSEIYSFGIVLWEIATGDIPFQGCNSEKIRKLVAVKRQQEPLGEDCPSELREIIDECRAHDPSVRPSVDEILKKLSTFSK
Outline: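 HepG2, cpd final 1 or 10 μM, 20-24 h, 37 °C/5% CO2; RIPA lysis, BCA-normalized, 10-15 μg/lane SDS-PAGE, western blot, ECL read-out.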

MLKL [2] = target: T1, MLKL; assay: Measurement of binding affinity with MLKL receptor (competitive binding assay, Kd); set-up: made in house; host or cells: HEK 293 cell line (T7 phage in E. coli BL21-derived host is also described)
Outline: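 Competitive displacement of MLKL, expressed in HEK 293 cells and DNA-tagged for qPCR, from immobilized ligand on biotin-blocked beads. Compounds were added from 111× DMSO stocks (final DMSO 0.9%). Kinase left in the eluates was quantified by qPCR to give Kd.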

## Nc1ncc(-c2cnn(C3CCN(C(=O)CCC4CCN(C(=O)CNc5ccc6c(c5)C(=O)N(C5CCC(=O)NC5=O)C6=O)CC4)CC3)c2)nc1C(=O)O[C@@H](C(=O)Nc1ccc(F)cc1)c1ccccc1 (stereo partly drawn) [TDH-422, (R)-2-((4-fluorophenyl)amino)-2-oxo-1-phenylethyl 3-amino-6-(1-(1-(3-(1-((2-(2,6-dioxopiperidin-3-yl)-1,3-dioxoisoindolin-5-yl)glycyl)piperidin-4-yl)propanoyl)piperidin-4-yl)-1H-pyrazol-4-yl)pyrazine-2-carboxylate]
FADD−/− Jurkat cells
  Necroptosis inhibition assay (Rescue %) 1 μM: 50.21%
  Necroptosis inhibition assay (Rescue %) 10 μM: 40.34%
MLKL [1]
  Degradation assay (Degradation %) 1 μM: 91.95%
  Degradation assay (Degradation %) 10 μM: 89.12%
MLKL [2]
  Kd: 4.1 nM

## Nc1ncc(-c2cnn(C3CCN(CC4CCN(CC5CCN(C(=O)COc6ccc7c(c6)C(=O)N(C6CCC(=O)NC6=O)C7=O)CC5)CC4)CC3)c2)nc1C(=O)O[C@@H](C(=O)Nc1ccc(F)cc1)c1ccccc1 (stereo partly drawn) [TDH-425, (R)-2-((4-fluorophenyl)amino)-2-oxo-1-phenylethyl 3-amino-6-(1-(1-((1-((1-(2-((2-(2,6-dioxopiperidin-3-yl)-1,3-dioxoisoindolin-5-yl)oxy)acetyl)piperidin-4-yl)methyl)piperidin-4-yl)methyl)piperidin-4-yl)-1H-pyrazol-4-yl)pyrazine-2-carboxylate]
FADD−/− Jurkat cells
  Necroptosis inhibition assay (Rescue %) 1 μM: 67.90%
MLKL [1]
  Degradation assay (Degradation %) 1 μM: 50.12%
  Degradation assay (Degradation %) 10 μM: 88.68%
MLKL [2]
  Kd: 0.34 nM

## Nc1ncc(-c2cnn(C3CCN(CC4CCN(CC5CCN(C(=O)CNc6ccc7c(c6)C(=O)N(C6CCC(=O)NC6=O)C7=O)CC5)CC4)CC3)c2)nc1C(=O)O[C@@H](C(=O)Nc1ccc(F)cc1)c1ccccc1 (stereo partly drawn) [TDH-426, (R)-2-((4-fluorophenyl)amino)-2-oxo-1-phenylethyl 3-amino-6-(1-(1-((1-((1-((2-(2,6-dioxopiperidin-3-yl)-1,3-dioxoisoindolin-5-yl)glycyl)piperidin-4-yl)methyl)piperidin-4-yl)methyl)piperidin-4-yl)-1H-pyrazol-4-yl)pyrazine-2-carboxylate]
FADD−/− Jurkat cells
  Necroptosis inhibition assay (Rescue %) 1 μM: 55.42%
MLKL [1]
  Degradation assay (Degradation %) 1 μM: 18.62%
  Degradation assay (Degradation %) 10 μM: 57.41%
MLKL [2]
  Kd: 1.2 nM

## Nc1ncc(-c2cnn(C3CCN(C(=O)CCC4CCN(C(=O)C5CN(c6cccc7c6C(=O)N(C6CCC(=O)NC6=O)C7=O)C5)CC4)CC3)c2)nc1C(=O)O[C@@H](C(=O)Nc1ccc(F)cc1)c1ccccc1 (stereo partly drawn) [TDH-427, (R)-2-((4-fluorophenyl)amino)-2-oxo-1-phenylethyl 3-amino-6-(1-(1-(3-(1-(1-(2-(2,6-dioxopiperidin-3-yl)-1,3-dioxoisoindolin-4-yl)azetidine-3-carbonyl)piperidin-4-yl)propanoyl)piperidin-4-yl)-1H-pyrazol-4-yl)pyrazine-2-carboxylate]
FADD−/− Jurkat cells
  Necroptosis inhibition assay (Rescue %) 1 μM: 5.57%
  Necroptosis inhibition assay (Rescue %) 10 μM: 9.73%
MLKL [1]
  Degradation assay (Degradation %) 1 μM: 75.94%
  Degradation assay (Degradation %) 10 μM: 59.59%
MLKL [2]
  Kd: 2.4 nM

## Nc1ncc(-c2cnn(C3CCN(C(=O)CCC4CCN(C(=O)C5CN(c6ccc7c(c6)C(=O)N(C6CCC(=O)NC6=O)C7=O)C5)CC4)CC3)c2)nc1C(=O)O[C@@H](C(=O)Nc1ccc(F)cc1)c1ccccc1 (stereo partly drawn) [TDH-428, (R)-2-((4-fluorophenyl)amino)-2-oxo-1-phenylethyl 3-amino-6-(1-(1-(3-(1-(1-(2-(2,6-dioxopiperidin-3-yl)-1,3-dioxoisoindolin-5-yl)azetidine-3-carbonyl)piperidin-4-yl)propanoyl)piperidin-4-yl)-1H-pyrazol-4-yl)pyrazine-2-carboxylate]
FADD−/− Jurkat cells
  Necroptosis inhibition assay (Rescue %) 1 μM: 27.27%
  Necroptosis inhibition assay (Rescue %) 10 μM: 9.58%
MLKL [1]
  Degradation assay (Degradation %) 1 μM: 58.66%
  Degradation assay (Degradation %) 10 μM: 85.95%
MLKL [2]
  Kd: 4.1 nM

## Nc1ncc(-c2cnn(C3CCN(C(=O)CCC4CCN(C(=O)CC5CCN(c6cccc7c6C(=O)N(C6CCC(=O)NC6=O)C7=O)CC5)CC4)CC3)c2)nc1C(=O)O[C@@H](C(=O)Nc1ccc(F)cc1)c1ccccc1 (stereo partly drawn) [TDH-429, (R)-2-((4-fluorophenyl)amino)-2-oxo-1-phenylethyl 3-amino-6-(1-(1-(3-(1-(2-(1-(2-(2,6-dioxopiperidin-3-yl)-1,3-dioxoisoindolin-4-yl)piperidin-4-yl)acetyl)piperidin-4-yl)propanoyl)piperidin-4-yl)-1H-pyrazol-4-yl)pyrazine-2-carboxylate]
FADD−/− Jurkat cells
  Necroptosis inhibition assay (Rescue %) 1 μM: 18.34%
  Necroptosis inhibition assay (Rescue %) 10 μM: 11.03%
MLKL [1]
  Degradation assay (Degradation %) 1 μM: 77.13%
  Degradation assay (Degradation %) 10 μM: 63.72%
MLKL [2]
  Kd: 2.3 nM

## Nc1ncc(-c2cnn(C3CCN(C(=O)CCC4CCN(C(=O)CC5CCN(c6ccc7c(c6)C(=O)N(C6CCC(=O)NC6=O)C7=O)CC5)CC4)CC3)c2)nc1C(=O)O[C@@H](C(=O)Nc1ccc(F)cc1)c1ccccc1 (stereo partly drawn) [TDH-430, (R)-2-((4-fluorophenyl)amino)-2-oxo-1-phenylethyl 3-amino-6-(1-(1-(3-(1-(2-(1-(2-(2,6-dioxopiperidin-3-yl)-1,3-dioxoisoindolin-5-yl)piperidin-4-yl)acetyl)piperidin-4-yl)propanoyl)piperidin-4-yl)-1H-pyrazol-4-yl)pyrazine-2-carboxylate]
FADD−/− Jurkat cells
  Necroptosis inhibition assay (Rescue %) 1 μM: 15.88%
  Necroptosis inhibition assay (Rescue %) 10 μM: 14.13%
MLKL [1]
  Degradation assay (Degradation %) 1 μM: 65.96%
  Degradation assay (Degradation %) 10 μM: 36.66%
MLKL [2]
  Kd: 2.2 nM

## Nc1ncc(-c2cnn(C3CCN(C(=O)CCC4CCN(C(=O)CCc5cccc6c5C(=O)N(C5CCC(=O)NC5=O)C6=O)CC4)CC3)c2)nc1C(=O)O[C@@H](C(=O)Nc1ccc(F)cc1)c1ccccc1 (stereo partly drawn) [TDH-431, (R)-2-((4-fluorophenyl)amino)-2-oxo-1-phenylethyl 3-amino-6-(1-(1-(3-(1-(3-(2-(2,6-dioxopiperidin-3-yl)-1,3-dioxoisoindolin-4-yl)propanoyl)piperidin-4-yl)propanoyl)piperidin-4-yl)-1H-pyrazol-4-yl)pyrazine-2-carboxylate]
FADD−/− Jurkat cells
  Necroptosis inhibition assay (Rescue %) 1 μM: 37.24%
  Necroptosis inhibition assay (Rescue %) 10 μM: 17.64%
MLKL [1]
  Degradation assay (Degradation %) 1 μM: 86.88%
  Degradation assay (Degradation %) 10 μM: 76.78%
MLKL [2]
  Kd: 1 nM

## Nc1ncc(-c2cnn(C3CCN(C(=O)CCC4CCN(C(=O)CCc5ccc6c(c5)C(=O)N(C5CCC(=O)NC5=O)C6=O)CC4)CC3)c2)nc1C(=O)O[C@@H](C(=O)Nc1ccc(F)cc1)c1ccccc1 (stereo partly drawn) [TDH-432, (R)-2-((4-fluorophenyl)amino)-2-oxo-1-phenylethyl 3-amino-6-(1-(1-(3-(1-(3-(2-(2,6-dioxopiperidin-3-yl)-1,3-dioxoisoindolin-5-yl)propanoyl)piperidin-4-yl)propanoyl)piperidin-4-yl)-1H-pyrazol-4-yl)pyrazine-2-carboxylate]
FADD−/− Jurkat cells
  Necroptosis inhibition assay (Rescue %) 1 μM: 12.47%
  Necroptosis inhibition assay (Rescue %) 10 μM: 0.07%
MLKL [1]
  Degradation assay (Degradation %) 1 μM: 89.17%
  Degradation assay (Degradation %) 10 μM: 73.05%
MLKL [2]
  Kd: 0.9 nM

## Nc1ncc(-c2cnn(C3CCN(C(=O)CCC4CCN(C(=O)CNc5cccc6nnn(C7CCC(=O)NC7=O)c(=O)c56)CC4)CC3)c2)nc1C(=O)O[C@@H](C(=O)Nc1ccc(F)cc1)c1ccccc1 (stereo partly drawn) [TDH-433, (R)-2-((4-fluorophenyl)amino)-2-oxo-1-phenylethyl 3-amino-6-(1-(1-(3-(1-((3-(2,6-dioxopiperidin-3-yl)-4-oxo-3,4-dihydrobenzo[d][1,2,3]triazin-5-yl)glycyl)piperidin-4-yl)propanoyl)piperidin-4-yl)-1H-pyrazol-4-yl)pyrazine-2-carboxylate]
FADD−/− Jurkat cells
  Necroptosis inhibition assay (Rescue %) 1 μM: 16.00%
  Necroptosis inhibition assay (Rescue %) 10 μM: 11.01%
MLKL [1]
  Degradation assay (Degradation %) 1 μM: 74.16%
  Degradation assay (Degradation %) 10 μM: 46.20%
MLKL [2]
  Kd: 2.1 nM

## Nc1ncc(-c2cnn(C3CCN(C(=O)CCC4CCN(C(=O)CNc5ccc6nnn(C7CCC(=O)NC7=O)c(=O)c6c5)CC4)CC3)c2)nc1C(=O)O[C@@H](C(=O)Nc1ccc(F)cc1)c1ccccc1 (stereo partly drawn) [TDH-434, (R)-2-((4-fluorophenyl)amino)-2-oxo-1-phenylethyl 3-amino-6-(1-(1-(3-(1-((3-(2,6-dioxopiperidin-3-yl)-4-oxo-3,4-dihydrobenzo[d][1,2,3]triazin-6-yl)glycyl)piperidin-4-yl)propanoyl)piperidin-4-yl)-1H-pyrazol-4-yl)pyrazine-2-carboxylate]
FADD−/− Jurkat cells
  Necroptosis inhibition assay (Rescue %) 1 μM: 28.72%
  Necroptosis inhibition assay (Rescue %) 10 μM: 20.87%
MLKL [1]
  Degradation assay (Degradation %) 1 μM: 85.08%
  Degradation assay (Degradation %) 10 μM: 74.66%
MLKL [2]
  Kd: 1.4 nM
